Experimental data: BindingDB's records for doi:10.1021/jm011081s (The Institute of Cancer Research, 2002)

Experiment: Growth inhibitory activity against mouse lymphoblastoid L1210TS cell line was determined as inhibition of thymidylate synthase

C#CCN(Cc1cc2c(=O)n(C)c(CN(CC)CC)nc2cc1Cl)c1ccc(C(=O)NCc2cccnc2)cc1 [4-[(7-Chloro-2-diethylaminomethyl-3-methyl-4-oxo-3,4-dihydro-quinazolin-6-ylmethyl)-prop-2-ynyl-amino]-N-pyridin-3-ylmethyl-benzamide]
IC50: > 50 µM
